Data set [1] deals with non-α4 integrins, including LFA-1. The following applies: cited from earlier work.
For another data set, the target named is T1, Rat α4β1 (Rattus norvegicus, UniProt D3ZMQ3+P49134).
T1 construct: rat RBL-2H3 cells which express rat α4β1; endogenous in cells; host or cells: RBL-2H3 cells (rat basophilic cell line)
Briefly: Saturation binding assay in RBL-2H3 cells (SPA). The following applies: [3H]GW559090, RBL-2H3 cells. The procedure: Jurkat J6 cells (human lymphoblast cell line) were grown as a suspension culture in RPMI 1640 supplemented with FCS (10%) and glutamine (2 mM). RPMI8866 cells (human B lymphoid cell line) were grown as a suspension culture in RPMI 1640 supplemented with FCS (10%) and glutamine (2 mM). RBL-2H3 cells (rat basophilic cell line) were cultured in Eagle's MEM plus Earles salts supplemented with 2 mM L-glutamine, 1 mM sodium pyruvate, 1× non-essential amino acids, 1 mM Na pyruvate 10% heat inactivated foetal calf serum.
The assay buffer contained 50 mM HEPES, 100 mM NaCl, 1 mM MnCl2, pH 7.5 (with NaOH). WGA SPA beads were used at 1 mg/well. Cells were harvested and resuspended in assay buffer and 1 million cells were added per well in a white bottomed plate. Cold GW559090 to give a final assay concentration of 20 μM (to define nonspecific binding) or buffer alone were added and then [3H] GW559090 across a concentration range across the plate was added (nominal [3H] GW559090 concentration range was 0.01 to 200 nM). The final assay volume was 250 μL. The plate was then incubated at 37° C. for 2 h. Disintegrations were counted by scintillation (from the WGA SPA beads) in a Wallac Microbeta plate reader.
The actual amount of [3H] GW559090 added for each concentration of the saturation curve was measured by counting disintegrations per minute from a 50 μL aliquot of the label dilution range.

Data set [2] concerns C57BL/6 mice subjected to desiccating stress. Briefly: Corneal OGD staining in murine desiccating stress model. In kind it is in vivo, mouse. The procedure: Female C57BL/6 mice, aged 6 to 8 weeks, were subjected to DS for 5 days (DS5) as described previously (de Paiva et al., 2006b; Niederkorn et al., 2006). Topical bilateral treatment with 1 eye drop per eye (2 μL volume) or subcutaneous injection (4 μL volume), 2 times per day, was initiated on day 1 concurrently with DS and continued through day 4. Treatment with the compound of formula I or dexamethasone phosphate 0.1% was compared to correspondingly treated vehicle controls. Mice were randomized to receive one of the test articles. Control mice were kept in a non-stressed (NS) environment maintained at 50-75% relative humidity without exposure to airflow or scopolamine and were not treated with test or control article. Treatment effects were assessed on corneal staining with Oregon Green Dextran (OGD); expression of inflammatory markers in ocular surface tissues by real time PCR; cell population analysis in draining cervical lymph nodes by FACS analysis; conjunctival T cell infiltration by immunohistochemistry.
On the morning of the 5th day, mice received one s.c. dose of scopolamine. Two hours later corneal staining was assessed using Oregon Green Dextran (OGD-488), which is a conjugated fluorescent dye of a 70 kDa molecular size (Invitrogen-Molecular Probes) as previously described (de Paiva et al., 2006b). The procedure consisted of instillation of 0.5 μL of OGD on the cornea using a glass capillary pipette, 1 minute before euthanasia. Mice were euthanized by inhalation of isoflurane gas followed by cervical dislocation. Eyes were then rinsed with 2 mL of BSS. Excess liquid was carefully blotted from the ocular surface with filter papers without touching the cornea. Digital pictures of both eyes were taken under 470 nm excitation and 488 nm emission wave lengths using a Nikon SMZ-1500 stereo microscope, with an exposure time of 2 seconds. Both eyes from each animal were evaluated; the right eye always first followed by the left eye. The mean intensity in the central cornea was evaluated from digital images using NIS Elements (version 3.0) by placing a fixed region of interest (a 2-mm diameter circle) on the central cornea. The mean intensity of the fluorescence was read by the software and stored in a database (Excel, Microsoft). This fluorescence measurement in the central ring was done independently by 2 masked observers, for each mouse eye. By the conclusion of the experiment, results were averaged from both observers using all data collected during all study weeks (Excel, Microsoft). Results are presented as geometric mean±95% confidence interval of gray levels.
Due to skewed distribution of OGD data, the analysis was done on the log 10 scale to make the data more normally distributed. Log 10 OGD data was averaged across two observers and the left and right eyes. The mixed effects ANOVA model included treatment group as a fixed effect and week as a random effect. 95% and 99% confidence intervals were constructed for the disease (5 day DS vs untreated group kept in separate vivarium) and compound treatment effects (treatment vs vehicle). As these comparisons were all pre-planned (comparing each treatment to its vehicle group), no adjustment was made for multiplicity. […] T cell density was calculated for each section and averaged across sections for each animal. […]

The next data set has as its system Beagle Dogs. Briefly: 13-week topical ocular toxicity study in Beagle dogs. In kind it is in vivo, dog. The procedure:
GW559090A was given to Beagle Dogs by topical ocular administration for 13 weeks. Animals were dosed six or twelve times per day, with one hour between doses. Treatment groups were: (1) vehicle (12 times a day), (2) 30 mg/mL/occasion given six times a day, (3) 50 mg/mL/occasion given six times a day, or (4) 50 mg/mL/occasion, given 12 times a day.
GW559090A was formulated as a stock solution in 25 mM phosphate buffer with 0.5% sodium chloride to provide a 50 mg/mL stock solution, which was used for administration to Groups 3 or 4, or further diluted with 25 mM phosphate buffer with 0.75% sodium chloride to provide a 30 mg/mL solution for administration to Group 2.
During the 13 week treatment period dogs received daily topical ocular doses of GW559090 or vehicle (12 times a day) at a constant dose volume of 0.06 mL (given 6 or 12 times a day, with one hour between doses). The test article formulation or vehicle was carefully dropped into the everted lower eyelid of the left eye from a suitable distance, to prevent contact of the positive displacement pipette with the eye. The lower and upper lids were then gently held together for approximately five seconds, to prevent loss of dose and aid even distribution across the external ocular surface. The un-dosed eye was not manipulated at any time and served as a within animal untreated control site.

[3] abbreviates: topical ocular 13 weeks, 30 or 50 mg/mL/occasion six times daily or 50 mg/mL/occasion 12 times daily.

Entries after “also recorded” stand apart in the source; their conditions may differ.

T1 sequence (D3ZMQ3 1-1036): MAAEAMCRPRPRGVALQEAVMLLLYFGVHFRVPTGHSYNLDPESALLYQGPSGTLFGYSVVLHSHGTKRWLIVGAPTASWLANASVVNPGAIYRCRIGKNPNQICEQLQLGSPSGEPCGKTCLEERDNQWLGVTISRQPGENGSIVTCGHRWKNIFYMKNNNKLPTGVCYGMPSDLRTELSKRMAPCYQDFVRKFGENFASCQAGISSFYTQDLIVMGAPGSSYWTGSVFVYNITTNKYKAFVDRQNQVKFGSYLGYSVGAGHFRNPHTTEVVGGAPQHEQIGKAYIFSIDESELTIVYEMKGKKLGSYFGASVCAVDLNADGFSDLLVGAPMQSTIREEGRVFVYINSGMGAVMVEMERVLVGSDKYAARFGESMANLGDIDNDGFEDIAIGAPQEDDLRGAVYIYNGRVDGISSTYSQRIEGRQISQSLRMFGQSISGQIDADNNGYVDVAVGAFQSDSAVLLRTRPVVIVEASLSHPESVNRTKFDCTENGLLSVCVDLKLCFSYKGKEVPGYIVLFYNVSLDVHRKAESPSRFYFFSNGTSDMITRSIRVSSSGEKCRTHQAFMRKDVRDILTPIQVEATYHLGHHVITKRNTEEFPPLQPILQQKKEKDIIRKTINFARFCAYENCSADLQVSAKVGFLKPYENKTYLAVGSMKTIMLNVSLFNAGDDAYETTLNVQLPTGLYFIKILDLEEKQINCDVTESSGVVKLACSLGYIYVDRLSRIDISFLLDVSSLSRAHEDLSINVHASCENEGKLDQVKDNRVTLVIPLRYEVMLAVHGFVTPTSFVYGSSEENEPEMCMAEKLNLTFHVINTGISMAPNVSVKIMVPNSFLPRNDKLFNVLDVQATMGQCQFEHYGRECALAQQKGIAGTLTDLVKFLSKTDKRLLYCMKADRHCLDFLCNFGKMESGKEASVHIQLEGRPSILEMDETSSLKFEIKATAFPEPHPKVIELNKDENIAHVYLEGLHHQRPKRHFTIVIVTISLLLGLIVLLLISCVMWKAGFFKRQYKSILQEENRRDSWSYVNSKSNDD
T1 sequence (P49134 21-799): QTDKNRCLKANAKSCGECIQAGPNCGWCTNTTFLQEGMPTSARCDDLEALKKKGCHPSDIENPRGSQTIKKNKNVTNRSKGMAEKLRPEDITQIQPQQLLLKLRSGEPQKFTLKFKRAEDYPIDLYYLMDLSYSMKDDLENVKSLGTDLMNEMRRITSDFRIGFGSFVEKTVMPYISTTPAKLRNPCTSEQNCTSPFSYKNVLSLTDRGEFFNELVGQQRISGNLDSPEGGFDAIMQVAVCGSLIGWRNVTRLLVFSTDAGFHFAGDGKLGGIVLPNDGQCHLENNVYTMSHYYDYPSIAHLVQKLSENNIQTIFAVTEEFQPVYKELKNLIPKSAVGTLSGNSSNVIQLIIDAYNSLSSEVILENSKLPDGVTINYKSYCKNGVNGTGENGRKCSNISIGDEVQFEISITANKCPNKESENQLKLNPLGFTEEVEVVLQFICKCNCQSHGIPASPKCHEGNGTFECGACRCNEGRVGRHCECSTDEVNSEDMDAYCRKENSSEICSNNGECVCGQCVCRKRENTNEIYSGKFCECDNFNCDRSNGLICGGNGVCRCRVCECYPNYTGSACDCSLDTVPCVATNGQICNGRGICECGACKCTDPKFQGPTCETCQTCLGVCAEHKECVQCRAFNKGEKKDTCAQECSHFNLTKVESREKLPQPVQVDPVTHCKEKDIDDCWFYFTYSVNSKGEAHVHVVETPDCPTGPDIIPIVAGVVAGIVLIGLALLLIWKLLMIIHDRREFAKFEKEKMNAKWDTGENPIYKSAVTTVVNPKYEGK

Consider `Cc1ccccc1OCC(=O)N[C@@H](CC(C)C)C(=O)N[C@@H](Cc1ccc(OC(=O)N2CCC(C(N)=O)CC2)cc1)C(=O)O` [GW559090, (2S)-3-[4-({[4-(Aminocarbonyl)-1-piperidinyl]carbonyl}oxy)phenyl]-2-[((2S)-4-methyl-2-{[2-(2-methylphenoxy)acetyl]amino}pentanoyl)amino]propanoic acid], for which the “Selectivity vs. non-α4 integrins” value in data set [1] is “highly selective”. The compound further registered a dissociation constant (Kd) at Rat α4β1 of 1.04 nM. The “OGD intensity score (corneal barrier disruption)” value in data set [2] (subcutaneous 120 μg 2 times per day, 5 days DS) is given as “not observed”. Further, the “OGD intensity score (corneal staining / corneal barrier disruption)” value in data set [2] (topical bilateral 2 times per day, 5 days DS, vs vehicle (GW559090 1-30 mg/mL; Dex 0.1%), listed as compound of formula I) is “significant decrease; also recorded: significantly decreased; also recorded: dose-dependently prevents”. In addition, the “Most efficacious concentration on OGD intensity score” value in data set [2] (topical, 1 to 30 mg/mL investigated) is 30 mg/mL. Also, in the data set on Beagle Dogs (given 12 times a day, 13 weeks), the “No-Observed-Adverse-Effect level (NOAEL)” value came to 50 mg/mL/occasion. In the data set with Beagle Dogs (setting [3]), the “Ocular change or systemic toxicity” value is given as “no ocular change or systemic toxicity” and the Tolerability entry is recorded as “well-tolerated”.

The values above are taken from patent US10413535B2, “Pharmaceutical compositions comprising an integrin ALPHA4 antagonist for use in treating ocular inflammatory conditions” (AXEROVISION, INC., priority 2015, dated 2019).
